The values that follow come from US20100113460A1, “Organic Compounds” (Givaudan SA, priority 2007, published 2010).

Where two headings read alike, the source gives them in different places.

The target of series [1] is T1, CYP2A6 (Homo sapiens, UniProt P11509).
T1 construct: purchased BD Biosciences Gentest, USA
T1 sequence (P11509 1-494): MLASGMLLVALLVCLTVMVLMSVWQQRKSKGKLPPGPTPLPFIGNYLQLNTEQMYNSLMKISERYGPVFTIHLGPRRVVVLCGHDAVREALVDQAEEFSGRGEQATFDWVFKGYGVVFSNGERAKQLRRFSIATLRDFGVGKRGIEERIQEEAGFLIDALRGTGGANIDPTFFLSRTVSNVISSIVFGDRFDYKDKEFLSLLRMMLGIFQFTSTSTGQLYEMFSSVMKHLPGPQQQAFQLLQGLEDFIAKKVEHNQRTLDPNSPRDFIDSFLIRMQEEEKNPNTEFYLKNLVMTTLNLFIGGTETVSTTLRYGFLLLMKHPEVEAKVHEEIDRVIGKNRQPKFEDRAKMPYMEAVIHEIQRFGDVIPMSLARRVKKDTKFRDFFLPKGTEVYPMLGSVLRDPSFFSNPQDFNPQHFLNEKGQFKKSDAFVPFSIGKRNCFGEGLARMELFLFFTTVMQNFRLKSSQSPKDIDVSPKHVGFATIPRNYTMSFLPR
The series is described as follows: CYP2A6 inhibition, coumarin to Umbelliferone fluorescence assay in microsomes. The class given is biochemical. The note with it: substrate coumarin 0.003 mM, 60 min at 37° C.; read-out: CYP2A6 inhibitor activity IC50. The method, then:
Test compounds that inhibit the activity of CYP2A6 are identified by using the same principle as described in Example 28, first paragraph.
A test compound (details see list below) was incubated with CYP2A6 in the presence of a cytochrome P450 reductase. CYP2A6 and P450 reductase were employed in form of microsomes (BD Biosciences Gentest, USA). Microsomes were used which contained 2 pmoles CYP2A6 and an amount of NADPH-P450 reductase corresponding to cytochrome c reductase activity of 87 nmole/(min×mg protein). […] The concentration of the standard substrate coumarin was 0.003 mM.
The samples were analysed spectrofluorometrically according to the procedure described in Example 28.

In series [2] the target is T2, CYP2A13 (Homo sapiens, UniProt Q16696).
T2 sequence (Q16696 1-494): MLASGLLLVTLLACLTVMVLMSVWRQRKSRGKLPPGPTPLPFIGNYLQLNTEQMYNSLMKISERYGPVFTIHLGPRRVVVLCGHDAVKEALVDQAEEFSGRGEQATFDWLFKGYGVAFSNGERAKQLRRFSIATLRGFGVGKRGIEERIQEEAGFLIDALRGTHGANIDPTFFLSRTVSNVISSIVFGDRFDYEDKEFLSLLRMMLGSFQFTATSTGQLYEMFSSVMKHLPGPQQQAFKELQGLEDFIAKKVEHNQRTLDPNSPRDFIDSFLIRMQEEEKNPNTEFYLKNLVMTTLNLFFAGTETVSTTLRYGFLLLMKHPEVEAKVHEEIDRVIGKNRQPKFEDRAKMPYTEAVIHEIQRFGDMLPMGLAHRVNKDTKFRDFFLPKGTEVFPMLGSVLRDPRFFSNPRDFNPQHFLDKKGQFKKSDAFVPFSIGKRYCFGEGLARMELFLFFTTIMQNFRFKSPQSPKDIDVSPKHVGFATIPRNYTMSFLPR
Put plainly: CYP2A13 inhibition, coumarin to 7-hydroxy-coumarin (Umbelliferone) fluorescence assay in microsomes.
Experimental: Compounds that inhibit the activity of CYP2A13 are identified by using a standard reaction established for the enzyme. A known substrate is coumarin, and the product of the enzymatic reaction is 7-hydroxy-coumarin (Umbelliferone) which is strongly fluorescent. When a compound is added to the standard reaction and the formation of Umbelliferone is decreased, the compound is identified as an inhibitor, which can also be a competitive substrate of the enzyme. The compound is used at various concentrations and the concentration-dependent decrease in Umbelliferone formation allows to determine the concentration where the activity of the enzyme is reduced to the 50% level (IC50 value).
A test compound (details see Table 1) was incubated with CYP2A13 in the presence of a cytochrome P450 reductase. CYP2A13 and P450 reductase were employed in form of microsomes. […] Preferably, the two enzymes are coexpressed in the same insect cells and microsomes prepared which contain both enzymes. […] An MOI of 4 for recombinant CYP2A13 baculovirus combined with an MOI of 3.5 for recombinant P450 reductase baculovirus routinely produced microsomes with considerable activity.
Microsomes were used which contained 7 pmoles CYP2A13. […] The concentration of the standard substrate coumarin was 0.006 mM. […] The mixture was incubated for 10 min at 37° C. prior to the initiation of the enzymatic reaction by the addition of 0.005 ml of a solution of 50 mM NADPH in water. The final total volume was 0.2 ml, which is suitable for microtiter plate measurements. The samples were incubated for 60 min at 37° C. After 60 min, the enzymatic reaction was stopped by the addition of 0.02 ml cold 50% trichloroacetic acid (TCA) and incubated at 4° C. for 15 min. 0.005 ml of a solution of 50 mM NADPH in water was added to the control reaction which corresponds to the reaction without test compound and without NADPH, and as a consequence, no Umbelliferone was formed. Denatured proteins and other insoluble parts were separated by centrifugation (10 min, 560×g, room-temperature).
The samples were analysed spectrofluorometrically which allows to detect the formation of Umbelliferone as the enzymatic product of coumarin at an excitation wavelength of 340 nm and an emission wavelength of 480 nm.

For series [3], the target named is T3, Human CYP2B6 (Homo sapiens, UniProt P20813).
T3 construct: made in house; host or cells: Sf9 insect cells, recombinant baculoviruses (coexpression)
T3 sequence (P20813 1-491): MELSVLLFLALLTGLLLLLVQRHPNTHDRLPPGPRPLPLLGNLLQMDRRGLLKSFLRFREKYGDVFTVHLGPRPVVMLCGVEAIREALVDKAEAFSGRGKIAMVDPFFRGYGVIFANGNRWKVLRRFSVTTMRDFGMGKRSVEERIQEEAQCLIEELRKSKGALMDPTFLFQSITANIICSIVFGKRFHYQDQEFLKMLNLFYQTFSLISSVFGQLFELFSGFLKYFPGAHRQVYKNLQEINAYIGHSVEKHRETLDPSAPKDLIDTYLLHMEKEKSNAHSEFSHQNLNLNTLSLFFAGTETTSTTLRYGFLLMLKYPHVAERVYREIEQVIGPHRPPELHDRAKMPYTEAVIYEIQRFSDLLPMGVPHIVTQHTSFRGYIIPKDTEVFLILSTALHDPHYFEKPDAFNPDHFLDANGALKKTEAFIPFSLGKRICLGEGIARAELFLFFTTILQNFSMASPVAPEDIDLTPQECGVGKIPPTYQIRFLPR
Put plainly: Inhibition of human CYP2B6, 7-ethoxy-4-trifluoromethyl-coumarin fluorescence assay in microsomes. The class given is biochemical. The note with it: substrate 7-ethoxy-4-trifluoromethyl-coumarin 6 μM, 40 min at 37° C.; read-out: CYP2B6 inhibitor activity IC50. On the procedure: Test compounds that inhibit the activity of CYP2B6 are identified by using the same principle as described in Example 28, first paragraph.
A test compound (details see Table 3) was incubated with CYP2B6 in the presence of a cytochrome P450 reductase. CYP2B6 and P450 reductase are produced using recombinant baculoviruses and co-expressing the two proteins in Sf9 insect cells as described in Example 28. Alternatively, microsomes containing CYP2B6 and the reductase are commercially available (BD Biosciences Gentest, USA). Microsomes were used which contained 1.5 pmoles CYP2B6. Potassium phosphate buffer final concentration was 100 mM, (1M stock, pH 7.4). […] The concentration of the standard substrate 7-ethoxy-4-trifluoromethyl-coumarin was 6 μM. […] The samples were incubated for 40 min at 37° C.

As for `CC(C)=CCC/C(C)=C\Cn1ccnc1` [Compound ID 44, 1-(3,7-dimethylocta-2,6-dienyl)-1H-imidazole], the IC50 in series [1] was found to be 6 µM; in series [2] it was 6.4 µM; in series [3] it was 0.1 µM.

As for `C=CCCCCCc1cnccn1` [Compound ID 57, 2-(hept-6-enyl)pyrazine], the IC50 in series [2] was found to be 10.2 µM; in series [3], 0.6 µM.

Turning to `c1nc2c(o1)CCCCCCCCCC2` [Compound ID 15, 4,5,6,7,8,9,10,11,12,13-decahydrocyclododeca[d]oxazole], the IC50 in series [1] is 53 µM; in series [2], 2 µM; in series [3], 5.4 µM.

In the case of `C=CCCCCn1ccnc1` [Compound ID 41, 1-(hex-5-enyl)-1H-imidazole], the IC50 in series [2] stood at 5.9 µM; in series [3], 1.9 µM.

In the case of `CCCCCCn1ccnc1` [Compound ID 16, 1-hexyl-1H-imidazole], the IC50 stood at 2.1 µM in series [2] (read-out: CYP2A13 inhibitor activity IC50, substrate coumarin 0.006 mM, 60 min at 37° C.) and 0.6 µM in series [3].

As for `CC/C=C\CCn1ccnc1` [Compound ID 23, (Z)-1-(hex-3-enyl)-1H-imidazole], the half-maximal inhibitory concentration (IC50) stood at 7 µM in series [1], 3.4 µM in series [2] and 2.2 µM in series [3].

As for `c1ncc2c(n1)CCCCCCCCCC2` [Compound ID 1, 5,6,7,8,9,10,11,12,13,14-decahydrocyclododeca[d]pyrimidine], the IC50 in series [1] is 9 µM; in series [2] it was 0.3 µM; in series [3], 2.7 µM.
